Source: patent US20230157350A1, “DELIVERY SYSTEMS AND METHODS OF MAKING THE SAME” (British American Tobacco (Investments) Limited, priority 2020, published 2023)

Tests used:
[1] = Stability and migration in the delivery system; type: physicochemical
Excerpt: The menthol in a pack of mentholated cigarettes, for example, is contained by an outer plastic packaging film. Within this packaging film, the menthol migrates and equilibrates. However, once this outer packaging film is removed (upon opening the pack for the first time), the menthol will begin to be lost. This migration and loss of the volatile menthol needs to be factored in when deciding how much menthol to include in each delivery system and where to apply it. It also means that the menthol delivery may vary depending on where the menthol is located when the delivery system is used.
This means that greater significance is attached to the amount of WS-3 incorporated into the delivery system, as well as where and how it is incorporated.
In some embodiments, the cooling agent WS-3 is present in the aerosol-generating material. In some embodiments, the cooling agent WS-3 is applied to the aerosol-generating material. As the delivery system is used, the WS-3 is volatilized and is entrained in the aerosol flow through the delivery system. […] This is despite the high temperatures seen in the rods of aerosol-generating material in combustible aerosol provision system, such as cigarettes. This is also despite the relatively low volatility of the WS-3 compared to some cooling agents used in delivery systems, such as menthol.

[2] = Sniffing Analysis of uncombusted tobacco, Quantitative Descriptive Profiling (ISO 13299)
Experimental: Further samples were analyzed using “Sniffing Analysis”, an applied sensory method for the assessment of characterizing flavors of standard products, by sniffing the tobacco itself, without combusting it, using a method as provided in the international standard ISO 13299. The data is set out in Tables 4 and 5, showing the results of Quantitative Descriptive Profiling (QDP), providing a score of between 0 and 5 for perception of the different tobacco typical and non-tobacco typical flavor notes
A critical intensity of a Mean >1.0 is highlighted in bold in Tables 4 and 5. On the 0-5 category scale, none of the prototype cigarette of “W53” or “WS23” show any critical intensity above 1.0 for the Non-Tobacco Typical Flavor Notes (see Table 5).

[3] = Smoking sensory evaluation of cigarettes by testers (1 to 10 scale, N=28); type: in vivo; settings: smoked cigarette
Experimental: Test cigarettes were produced using the following amounts of WS-3 applied to the aerosol-generating material in the tobacco rod in the form of a solution:
Various cigarettes were prepared and smoked so that the (1) menthol-family flavor intensity; (2) cooling sensation; and (3) tobacco taste intensity could each be evaluated by testers on a 1 to 10 scale (N=28).

[4] = as above; type: in vivo; settings: 1 mg
Solubility in solvents = type: physicochemical

CC1CCC(C(C)C)C(O)C1 (stereo not drawn) [Menthol]
Migration within the delivery system or packaging during storage [1]: highly volatile and migrates | Non-Tobacco Typical Flavor Note: Alcoholic ([2]; 4 mg, score 0-5): .1 | Non-Tobacco Typical Flavor Note: Cacao ([2]; 4 mg, score 0-5): .0 | Non-Tobacco Typical Flavor Note: Caramel ([2]; 4 mg, score 0-5): .1 | Non-Tobacco Typical Flavor Note: Citrus ([2]; 4 mg, score 0-5): .0 | Non-Tobacco Typical Flavor Note: Floral ([2]; 4 mg, score 0-5): .0 | Non-Tobacco Typical Flavor Note: Fruity ([2]; 4 mg, score 0-5): .0 | Non-Tobacco Typical Flavor Note: Honey ([2]; 4 mg, score 0-5): .1 | Non-Tobacco Typical Flavor Note: Licorice ([2]; 4 mg, score 0-5): .0 | Non-Tobacco Typical Flavor Note: Minty ([2]; 4 mg, score 0-5): .9 | Non-Tobacco Typical Flavor Note: Spicy ([2]; 4 mg, score 0-5): .0 | Non-Tobacco Typical Flavor Note: Vanilla ([2]; 4 mg, score 0-5): .1 | Tobacco Typical Flavor Note: Animalic ([2]; 4 mg, score 0-5): 0.0 | Tobacco Typical Flavor Note: Black Tea ([2]; 4 mg, score 0-5): 0.0 | Tobacco Typical Flavor Note: Earthy ([2]; 4 mg, score 0-5): 0.0 | Tobacco Typical Flavor Note: Haylike ([2]; 4 mg, score 0-5): 0.0 | Tobacco Typical Flavor Note: Roasted ([2]; 4 mg, score 0-5): 0.1 | Tobacco Typical Flavor Note: Smoky ([2]; 4 mg, score 0-5): 0.0 | Tobacco Typical Flavor Note: Tobacco ([2]; 4 mg, score 0-5): 0.6 | Tobacco Typical Flavor Note: Woody ([2]; 4 mg, score 0-5): 0.1 | Non-Tobacco Typical Flavor Note: Minty ([2]; 4 mg, score 0-5, listed as menthol): 4.9 | Cooling Sensation ([3]; 1.5 mg menthol (low)): 4.8 | Menthol-Family Flavor Intensity ([3]; 1.5 mg menthol (low)): 4.1 | Tobacco Taste Intensity ([3]; 1.5 mg menthol (low)): 3.1 | Cooling Sensation ([3]; 3.5 mg menthol (medium)): 7.6 | Menthol-Family Flavor Intensity ([3]; 3.5 mg menthol (medium)): 7.0 | Tobacco Taste Intensity ([3]; 3.5 mg menthol (medium)): 2.1 | Cooling Sensation ([3]; 5.0 mg menthol (high)): 8.8 | Menthol-Family Flavor Intensity ([3]; 5.0 mg menthol (high)): 8.0 | Tobacco Taste Intensity ([3]; 5.0 mg menthol (high)): 1.4

CNC(=O)C(C)(C(C)C)C(C)C [WS-23]
Overall flavor conclusion of smoking and sniffing analysis [4]: very low, but detectable minty/menthol flavor | Non-Tobacco Typical Flavor Note: Alcoholic ([2]; 1 mg, score 0-5): .0 | Non-Tobacco Typical Flavor Note: Cacao ([2]; 1 mg, score 0-5): .1 | Non-Tobacco Typical Flavor Note: Caramel ([2]; 1 mg, score 0-5): .1 | Non-Tobacco Typical Flavor Note: Citrus ([2]; 1 mg, score 0-5): .2 | Non-Tobacco Typical Flavor Note: Floral ([2]; 1 mg, score 0-5): .1 | Non-Tobacco Typical Flavor Note: Fruity ([2]; 1 mg, score 0-5): .2 | Non-Tobacco Typical Flavor Note: Honey ([2]; 1 mg, score 0-5): .1 | Non-Tobacco Typical Flavor Note: Licorice ([2]; 1 mg, score 0-5): .0 | Non-Tobacco Typical Flavor Note: Minty ([2]; 1 mg, score 0-5): .7 | Non-Tobacco Typical Flavor Note: Spicy ([2]; 1 mg, score 0-5): .0 | Non-Tobacco Typical Flavor Note: Vanilla ([2]; 1 mg, score 0-5): .3 | Tobacco Typical Flavor Note: Animalic ([2]; 1 mg, score 0-5): 0.1 | Tobacco Typical Flavor Note: Black Tea ([2]; 1 mg, score 0-5): 0.1 | Tobacco Typical Flavor Note: Earthy ([2]; 1 mg, score 0-5): 0.3 | Tobacco Typical Flavor Note: Haylike ([2]; 1 mg, score 0-5): 0.9 | Tobacco Typical Flavor Note: Roasted ([2]; 1 mg, score 0-5): 0.7 | Tobacco Typical Flavor Note: Smoky ([2]; 1 mg, score 0-5): 0.1 | Tobacco Typical Flavor Note: Tobacco ([2]; 1 mg, score 0-5): 3.5 | Tobacco Typical Flavor Note: Woody ([2]; 1 mg, score 0-5): 1.0 | Non-Tobacco Typical Flavor Note: Minty ([2]; 1 mg, score 0-5, listed as WS23): 0.7 | Menthol-Family Flavor Intensity ([3]; 1.0 mg cooling agent): 2.2 | Tobacco Taste Intensity ([3]; 1.0 mg cooling agent): 3.9

CCNC(=O)C1CC(C)CCC1C(C)C (stereo not drawn) [WS-3, N-ethyl-2-(isopropyl)-5-methylcyclohexane carboxamide]
Stability in the aerosol ([1]; high temperatures in rods of combustible aerosol provision systems): stable molecule and is not transformed and does not react with other chemicals in the aerosol | Migration within the delivery system or packaging during storage [1]: does not migrate | Solubility in solvents versus humectants (Solubility in solvents; alcohol or DMSO versus propylene glycol): higher in the solvents than in humectants such as propylene glycol | Solubility (Solubility in solvents; alcohol, such as ethanol, and DMSO): readily soluble | Overall flavor conclusion of smoking and sniffing analysis [4]: provides a cooling sensation without menthol flavor | Non-Tobacco Typical Flavor Note: Alcoholic ([2]; 1 mg, score 0-5): .0 | Non-Tobacco Typical Flavor Note: Cacao ([2]; 1 mg, score 0-5): .2 | Non-Tobacco Typical Flavor Note: Caramel ([2]; 1 mg, score 0-5): .1 | Non-Tobacco Typical Flavor Note: Citrus ([2]; 1 mg, score 0-5): .0 | Non-Tobacco Typical Flavor Note: Floral ([2]; 1 mg, score 0-5): .0 | Non-Tobacco Typical Flavor Note: Fruity ([2]; 1 mg, score 0-5): .1 | Non-Tobacco Typical Flavor Note: Honey ([2]; 1 mg, score 0-5): .1 | Non-Tobacco Typical Flavor Note: Licorice ([2]; 1 mg, score 0-5): .0 | Non-Tobacco Typical Flavor Note: Minty ([2]; 1 mg, score 0-5): .0 | Non-Tobacco Typical Flavor Note: Spicy ([2]; 1 mg, score 0-5): .1 | Non-Tobacco Typical Flavor Note: Vanilla ([2]; 1 mg, score 0-5): .3 | Tobacco Typical Flavor Note: Animalic ([2]; 1 mg, score 0-5): 0.1 | Tobacco Typical Flavor Note: Black Tea ([2]; 1 mg, score 0-5): 0.0 | Tobacco Typical Flavor Note: Earthy ([2]; 1 mg, score 0-5): 0.3 | Tobacco Typical Flavor Note: Haylike ([2]; 1 mg, score 0-5): 1.1 | Tobacco Typical Flavor Note: Roasted ([2]; 1 mg, score 0-5): 0.7 | Tobacco Typical Flavor Note: Smoky ([2]; 1 mg, score 0-5): 0.0 | Tobacco Typical Flavor Note: Tobacco ([2]; 1 mg, score 0-5): 3.9 | Tobacco Typical Flavor Note: Woody ([2]; 1 mg, score 0-5): 1.3 | Cooling Sensation ([3]; 1.0 mg cooling agent): significant higher than both control products
